Measurements taken from patent US20120027822A1, “Process for Producing Rapidly Disintegrating Spheroids (Pellets), Granules and/or Mixtures Thereof” (SPECIFAR S.A., priority 2009, published 2012).

Test: not given
Details: water; cited from earlier work
In the case of `COc1ccnc(C[S+]([O-])c2nc3ccc(OC(F)F)cc3[nH]2)c1OC` (stereo not shown) [Pantoprazole], the “aqueous solubility class (US Pharmacopoeia terms)” value (“aqueous solubility class” below) is given as “freely soluble”.
In the case of `COCCCOc1ccnc(C[S+]([O-])c2nc3ccccc3[nH]2)c1C` (stereo not shown) [Rabeprazole], the “aqueous solubility class” value is given as “very soluble”.
For `COc1ccc2[nH]c([S+]([O-])Cc3ncc(C)c(OC)c3C)nc2c1` (stereo not shown) [Omeprazole], the “aqueous solubility class” value is listed as “very slightly soluble”.
In the case of `Cc1c(OCC(F)(F)F)ccnc1C[S+]([O-])c1nc2ccccc2[nH]1` (stereo not shown) [Lansoprazole], the “aqueous solubility class” value is listed as “practically insoluble”.
In the case of `COc1ccc2nc([S@@+]([O-])Cc3ncc(C)c(OC)c3C)[nH]c2c1` [Esomeprazole], the “aqueous solubility class” value is listed as “slightly soluble or insoluble”.
In the case of `CCC1=C(C)CN(C(=O)NCCc2ccc(S(=O)(=O)NC(=O)N[C@H]3CC[C@H](C)CC3)cc2)C1=O` [Glimepiride], the “aqueous solubility class” value is listed as “practically insoluble”.

Test: Polymorph study by X-Ray Powder Diffraction (XRPD)
Format: physicochemical
Details: XRPD of powder from spheroids of example 7a versus dihydrate and trihydrate patterns
Description: All the formulations described in examples 7a-7h released the API quantitatively in 15 minutes. In addition, a polymorph study was performed and the crystal phase of Esomeprazole Mg powder deriving from the spheroids of example 7a was established through the application of the X-Ray Powder Diffraction (XRPD) technique. The recorded XRD patterns shown in FIG. 2 were compared against the respective patterns of the dihydrate and trihydrate forms provided by the manufacturer. […] None of the characteristic trihydrate reflections, marked with arrows in FIG. 2, could be observed.
In the case of `COc1ccc2[n-]c([S@@+]([O-])Cc3ncc(C)c(OC)c3C)nc2c1.COc1ccc2[n-]c([S@@+]([O-])Cc3ncc(C)c(OC)c3C)nc2c1.O.O.[Mg+2]` [Esomeprazole Magnesium Dihydrate], the “crystal habit after the aqueous pelletization process” value is reported as “without deteriorating the crystal habit”.
